Several values for one entry are separate records, joined by “and”; a condition that tells them apart may be missing. Equal values may be shown once. Read-outs that look alike come from different tables or passages of the source.
Legend:
Aβ42 [1] = settings: transgenic mouse model; cited from earlier work
Aβ42 [2] = settings: CHO cells; cited from earlier work
COX = settings: cited from earlier work
Aβ42 secretion = Aβ42 secretion by H4 cells expressing APP695, sandwich ELISA; type: cell-based, human; settings: medium collected at 24 or 48 hours, several numbers = independent sets of assays; for IC50: about 1 μM to about 100 μM; for inhibition at 100 µM / % Inhibition of Aβ42 Secretion @ 100 μM: test compound 100 μM vs DMSO control
Experimental: (§1) The present invention provides compositions and methods for lowering Aβ42 levels. To test whether compounds and compositions are capable of modulating Aβ levels in cultured cells, sandwich enzyme-linked immunosorbent assays (ELISAs) are employed to measure secreted Aβ (Aβ42 and/or Aβ40 levels). In this example, H4 cells expressing wide type APP695 are seeded at 200,000 cells per well in 6 well plates, and incubated at 37° C. with 5% CO2 overnight. Cells are treated with 1.5 ml medium containing vehicle (DMSO) or a test compound at 1.25 μM, 2.5 μM, 5.0 μM and 10.0 μM (as well as other concentration if desirable) for 24 hours or 48 hours. The supernatant from treated cells is collected into eppendorf tubes and frozen at −80° C. for future analysis.
(§2) The amyloid peptide standard is reconstituted and frozen samples are thawed. The samples and standards are diluted with appropriate diluents and the plate is washed 4 times with Working Wash Buffer and patted dry on a paper towel. 100 μL per well of peptide standards, controls, and dilutions of samples to be analyzed is added. The plate is incubated for 2 hours while shaking on an orbital plate shaker at RT. The plate is then washed 4 times with Working Wash Buffer and patted dry on a paper towel. Detection Antibody Solution is poured into a reservoir and 100 μL/well of Detection Antibody Solution is immediately added to the plate. The plate is incubated at RT for 2 hours while shaking and then washed four times with Working Wash Buffer and patted dry on a paper towel. Secondary Antibody Solution is then poured into a reservoir and 100 μL/well of Secondary Antibody Solution is immediately added to the plate. The plate is incubated at RT for 2 hours with shaking, washed 5 times with Working Wash Buffer, and patted dry on a paper towel.
(§3) 100 μL of stabilized chromogen is added to each well and the liquid in the wells begins to turn blue. The plate is incubated for 30 minutes at room temperature and in the dark. 100 μL of stop solution is added to each well and the plate is tapped gently to mix resulting in a change of solution color from blue to yellow. The absorbance of each well is read at 450 nm having blanked the plate reader against a chromogen blank composed of 100 μL each of stabilized chromogen and stop solution. The plate is read within 2 hours of adding the stop solution. The absorbance of the standards is plotted against the standard concentration and the concentrations of unknown samples and controls are calculated.
(§4) The present invention provides compositions and methods for lowering Aβ42 levels. To test whether compounds and compositions are capable of modulating Aβ levels, sandwich enzyme-linked immunosorbent assays (ELISAs) is employed to measure secreted Aβ42 and/or Aβ40 levels. In this example, H4 cells expressing wide type APP695 are seeded at 200,000 cells per well in 6 well plates, and incubated at 37° C. with 5% CO2 overnight. Cells are treated with 1.5 mL medium containing vehicle (DMSO) or a test compound at 1.25 μM, 2.5 μM, 5.0 μM and 10.0 μM concentration for 24 hours or 48 hours. The supernatant from treated cells is collected into eppendorf tubes and frozen at −80° C. for future analysis.
(§5) 130 μL per well of samples, standards, and blanks is added to a 96-well polypropylene plate. […] of samples, standards, and blanks from the polypropylene plate is added to the antibody-coated plates. The strip-holder with the appropriate number of strips is applied to the antibody-coated plates and the strips are covered with an adhesive sealer. The plate is then incubated 3 hours at room temperature while shaking on an orbital plate shaker.
(§6) The first antibody solution is prepared with Conjugate Diluent 1 at 1:100 ratio. Each well of the antibody-coated plates is washed 5 times with 400 μL washing solution and 100 μL of the prepared first antibody solution is added to each well. […]

Aβ40 secretion = Aβ40 secretion by H4 cells expressing APP695, sandwich ELISA; type: cell-based, human; settings: medium collected at 24 or 48 hours, several numbers = independent sets of assays; for IC50: about 1 μM to about 100 μM; for inhibition at 100 µM / % Inhibition of Aβ40 Secretion @ 100 μM: test compound 100 μM vs DMSO control
Experimental: as §1, §2, §3, §4, §5, §6

IC50 (Aβ42 secretion; Homo sapiens) | IC50 (Aβ40 secretion; Homo sapiens) | IC50 (Aβ40 secretion) | IC50 (Aβ42 secretion) | SMILES | Aβ42 lowering (Aβ42 [1]) | Aβ42 lowering (Aβ42 [2]) | inhibition of COX activity (COX) | inhibition at 100 µM (Aβ42 secretion; Homo sapiens) | inhibition at 100 µM (Aβ40 secretion; Homo sapiens) | % Inhibition of Aβ42 Secretion @ 100 μM (Aβ42 secretion) | % Inhibition of Aβ40 Secretion @ 100 μM (Aβ40 secretion)
55 µM | 40 µM | – | – | CCOC(=O)c1cc(CCc2ccccc2)n(-c2ccc(CCCC(=O)O)cc2)c1-c1ccccc1 [Compound 22, 1-[4-(3-Carboxy-propyl)-phenyl]-5-phenethyl-2-phenyl-1H-pyrrole-3-carboxylic acid ethyl ester] | – | – | – | 68% | 65% | – | –
52 µM | 100 µM | – | – | O=C(O)CCc1cccc(-n2c(CCc3ccccc3)ccc2-c2ccccc2)c1 [Compound 24, 3-[3-(2-Phenethyl-5-phenyl-pyrrol-1-yl)-phenyl]-propionic acid] | – | – | – | 73% | 52% | – | –
21 µM | > 100 µM | – | – | CCOC(=O)c1cc(CCc2ccccc2)n(-c2cccc(C(=O)O)c2)c1-c1ccccc1 [Compound 20, 1-(3-Carboxy-phenyl)-5-phenethyl-2-phenyl-1H-pyrrole-3-carboxylic acid ethyl ester] | – | – | – | 95% | 49% | – | –
14 µM | 33 µM | – | – | O=C(O)CCCc1ccc(-n2c(-c3ccccc3)cc(-c3ccccc3)c2C2CCCCC2)cc1 [Compound 29, 4-[4-(2-Cyclohexyl-3,5-diphenyl-pyrrol-1-yl)-phenyl]-butyric acid] | – | – | – | 102% | 103% | – | –
23 µM | 70 µM | – | – | O=C(O)c1cccc(-n2c(CCc3ccccc3)ccc2-c2ccccc2)c1 [Compound 23, 3-(2-Phenethyl-5-phenyl-pyrrol-1-yl)-benzoic acid] | – | – | – | 77% | 67% | – | –
8 µM | 29 µM | 19 µM | 7 µM | CC(C)(C)Cc1c(-c2ccccc2)cc(-c2ccccc2)n1-c1cccc(C(=O)O)c1 [Compound 36, 3-[2-(2,2-Dimethyl-propyl)-3,5-diphenyl-pyrrol-1-yl]-benzoic acid] | – | – | – | 99% | 103% | 101% | 96%
> 100 µM | > 100 µM | – | – | O=C(O)CCCc1ccc(-n2c(CCc3ccccc3)ccc2-c2ccccc2)cc1 [Compound 25, 4-[4-(2-Phenethyl-5-phenyl-pyrrol-1-yl)-phenyl]-butyric acid] | – | – | – | 40% | 30% | – | –
21 µM | 74 µM | 79 µM | 24 µM | O=C(O)c1cccc(-n2c(-c3ccccc3)cc(-c3ccccc3)c2C2CC2)c1 [Compound 33, 3-(2-Cyclopropyl-3,5-diphenyl-pyrrol-1-yl)-benzoic acid] | – | – | – | 89% | 73% | 86% | 73, 73%

Further lines, the molecule ahead of its results:

SMILES | IC50 (Aβ42 secretion; Homo sapiens) | IC50 (Aβ40 secretion; Homo sapiens) | IC50 (Aβ40 secretion) | IC50 (Aβ42 secretion) | Aβ42 lowering (Aβ42 [1]) | Aβ42 lowering (Aβ42 [2]) | inhibition of COX activity (COX) | inhibition at 100 µM (Aβ42 secretion; Homo sapiens) | inhibition at 100 µM (Aβ40 secretion; Homo sapiens) | % Inhibition of Aβ42 Secretion @ 100 μM (Aβ42 secretion) | % Inhibition of Aβ40 Secretion @ 100 μM (Aβ40 secretion)
C[C@@H](C(=O)O)c1ccc(-c2ccccc2)c(F)c1 [R-Flurbiprofen] | – | – | – | – | lower Aβ42 | lower Aβ42 | negligibly inhibits COX activity | – | – | – | –
O=C(O)c1cccc(-n2cc(-c3ccccc3)cc2-c2ccccc2)c1 [Compound 6, 3-(2,4-Diphenyl-pyrrol-1-yl)-benzoic acid] | 30 µM | > 100 µM | – | – | – | – | – | 74% | 32% | – | –
Cc1c(-c2ccccc2)cc(-c2ccc(Cl)c(Cl)c2)n1-c1ccc(CCCC(=O)O)cc1 [Compound 19, 4-{4-[5-(3,4-Dichloro-phenyl)-2-methyl-3-phenyl-pyrrol-1-yl]-phenyl}-butyric acid] | – | > 100 µM | 65 µM | – | – | – | – | 95% | – | 109% | 42% and 78%
Cc1c(-c2ccccc2)cc(-c2ccc(C(F)(F)F)cc2)n1-c1ccc(CCCC(=O)O)cc1 [Compound 16, 4-{4-[2-Methyl-3-phenyl-5-(4-trifluoromethyl-phenyl)-pyrrol-1-yl]-phenyl}-butyric acid] | 5 µM | – | – | 10 µM | – | – | – | 97% | 78% | 102% | 93%
Cc1c(-c2ccccc2)cc(-c2ccc(C(F)(F)F)cc2)n1-c1cccc(CCC(=O)O)c1 [Compound 15, 3-{3-[2-Methyl-3-phenyl-5-(4-trifluoromethyl-phenyl)-pyrrol-1-yl]-phenyl}-propionic acid] | 21 µM | 82 µM | – | – | – | – | – | 96% | 63% | – | –
Cc1c(-c2ccccc2)cc(-c2ccccc2)n1-c1ccc(CCCC(=O)O)cc1 [Compound 1, 4-[4-(2-Methyl-3,5-diphenyl-pyrrol-1-yl)-phenyl]-butyric acid] | – | > 100 µM | 67 µM | – | – | – | – | – | – | 101% and 99% and 78% | –
CCc1c(-c2ccccc2)cc(-c2ccccc2)n1-c1cccc(C(=O)O)c1 [Compound 11, 3-(2-Ethyl-3,5-diphenyl-pyrrol-1-yl)-benzoic acid] | – | > 100 µM | 69 µM and 68 µM | – | – | – | – | 92% | – | 94% and 78% | –
Cc1c(-c2ccccc2)cc(-c2ccc(Cl)c(Cl)c2)n1-c1cccc(CCC(=O)O)c1 [Compound 18, 3-{3-[5-(3,4-Dichloro-phenyl)-2-methyl-3-phenyl-pyrrol-1-yl]-phenyl}-propionic acid] | 10 µM | > 100 µM | – | – | – | – | – | 94% | 41% | – | –
O=C(O)CCCc1ccc(-n2cc(-c3ccccc3)cc2-c2ccccc2)cc1 [Compound 7, 4-[4-(2,4-Diphenyl-pyrrol-1-yl)-phenyl]-butyric acid] | 52 µM | > 100 µM | – | – | – | – | – | 76% | 7% | – | –

From US8217073B2, “Pyrrole derivatives as therapeutic compounds” (Myrexis, Inc., priority 2005, dated 2012)
